Test results from US7179645B2 (priority 2002, dated 2007).
[ ]: non-standard residue; d: D form. ava = not defined here

Columns and labels:
[1] = tested on: B10.A (5R) mice; antibodies against the HIV gp160(843–855) peptide; format: in vivo, mouse; settings: peptides in saline solution; for Antibody induction (ELISA), Dilution^−1 20: serum day 35, against HIV gp160(843–855) peptide, serum dilution^−1 20; for Antibody induction (ELISA), Dilution^−1 60: serum day 35, serum dilution^−1 60; for Antibody induction (ELISA), Dilution^−1 180: serum day 35, serum dilution^−1 180; for Antibody induction (ELISA), Dilution^−1 540: serum day 35, serum dilution^−1 540
Procedure: An ELISA assay for antibody responses following immunization with the experimental peptides indicated above was performed as follows. Fifty microliters (μl) of a solution of the coating peptide at 2 μg/well in 0.1 M carbonate buffer, pH 9.5 was added to each well of a 96-well Nunc-immunoplate (#442404) for an overnight incubation at 4° C. After aspiration, 250 μl of phosphate-buffer saline solution containing 3% fetal bovine serum (assay diluent) was added to each well for 2 hr at RT. After washing three times with assay diluent, 50 μl of 20-times diluted mouse serum in 1:3 serial dilution in assay diluent was added to each well for 2 hr at RT. After washing three times with assay diluent, 50 μl of 1 μg/ml biotinylated goat anti-mouse IgG1 or IgG2a was added to each well and incubated for 1 hr at RT. After washing three times with assay diluent, 50 μl of streptavidin-horse radish peroxidase conjugate (1:1000) was added to each well and incubated for 30 min at RT. After washing three times with assay diluent, 100 μl of tetramethylbenzidine/H2O2 solution (Pharmingen 264 KK) was added to each well for 15 min in the dark at room temperature. The reaction was stopped with 100 μl 1N H2SO4 in each well and the absorbance was read immediately at 450 nm.
B10.A (5R) mice (H-2) were immunized with 20 nmole of peptides in 50 μl phosphate-buffered saline solution, intramuscularly in right and left rear legs on days 1 and 2, respectively. On day 14 the mice were boosted intramuscularly with 40 nmole of peptides in 200 μl Hank's balanced salts solution intramuscularly in a rear leg. On day 30 the mice were boosted intravenously with 40 nmole peptides dissolved in Hank's balanced salts solution (HBSS). On day 35 the mice were sacrificed and serum samples were assayed for antibody titers against the HIV gp160(843–855) peptide.

[2] = tested on: C3H/HeJ mice (H-2^k); antibodies against the PGCC(95–104) epitope peptide; settings: mouse, in vivo
[3] = tested on: C3H/HeJ(H-2^k) mice; splenic T cells; format: in vivo, mouse; settings: C3H/HeJ mice, 40 nmole, boosts day 13 and 31, spleens day 35
Procedure: An ELISPOT assay for IFN-γ cytokine responses was performed in order to titer more exactly splenic T lymphocyte subset responses to immunization with Ii-Key-ava-gp160(843–855) or gp160(843–855). The assay was performed as follows. A solution of the cytokine-specific capture antibody (100 μl at 6 μg/ml in phosphate-buffered saline solution, pH 7.2) was added to each well of a 96-well Immunospot plate (M200) for an overnight incubation at 4° C. After aspiration, phosphate-buffer saline solution 200 μl containing 10% fetal bovine serum and 1% penicillin-streptomycin-glutamine (mouse medium) was added to each well for 2 hr at RT. After washing four times with 1% Tween-20 in phosphate-buffered saline solution (wash buffer I), 100 μl of single cell suspensions from the spleens of immunized mice at 10^6 cells/well were re-stimulated with 100 μl of peptide-epitope at 5 μg/well in mouse medium and incubated for 20–40 hr at 37° C., 5% CO2. After washing twice with phosphate-buffered saline solution (wash buffer II) and four times with wash buffer 1,100 μl of 2 μg/ml biotinylated anti-mouse IFN-γ in 1× phosphate buffer saline with 10% fetal bovine serum (dilution buffer) was added to each well for 2 hr at RT. After washing five times with wash buffer 1,100 μl of streptavidin-horse radish peroxidase conjugate (1:500) in dilution buffer was added to each well for 1 hr at RT. After washing four times with wash buffer I and two times with wash buffer II, 100 μl of the 3-amino-9-ethylcarbazole/H2O2 substrate (Pharmingen 551951) was added and incubated for 30–60 min in the dark at RT. The reaction was stopped by washing three times with 200 μl of deionized water. ELISPOT data analysis was performed by using the Immunospot 1.7e software (Cellular Limited Technology). Digitized images of quadruplicate wells were analyzed for the presence of spots in which color density exceeds background based on comparison of control cells (naive splenocytes) and experimental cells (splenocytes of immunized mice) cells. Additional counting parameters for spot size and circularity were applied to gate out speckles caused by non-specific antibody binding. Each spot represents a single cell secreting IFN-γ.
C3H/HeJ(H-2^k) mice were immunized with 40 nmole of peptides (50 μl) emulsified with equal volume of incomplete Freund's adjuvant (IFA), subcutaneously at the base of the tail. On day 13 the mice were boosted subcutaneously at the base of the tail with 40 nmole of peptides (50 μl) emulsified with equal amount of incomplete Freund's adjuvant (IFA). On day 31, the mice were boosted intravenously with 40 nmole peptides dissolved in 100 μl Hank's balanced salts solution (HBSS). […]

[4] = tested on: tumor cells expressing HLA-A24 and CEA; settings: cited from earlier work

Gp160 (843–855) (LRMKAYRAIRHIPR)
Antibody induction (ELISA), Dilution^−1 20 [1]: 0.052
Antibody induction (ELISA), Dilution^−1 60 [1]: 0.023
Antibody induction (ELISA), Dilution^−1 180 [1]: 0.000
Antibody induction (ELISA), Dilution^−1 540 [1]: −0.005

Ii-Key/one-ava/gp160 (843–855) (Ac-LRMK[ava]AYRAIRHIPR-NH2; reading uncertain)
Antibody induction (ELISA), Dilution^−1 20 [1]: 0.600
Antibody induction (ELISA), Dilution^−1 60 [1]: 0.157
Antibody induction (ELISA), Dilution^−1 180 [1]: 0.073
Antibody induction (ELISA), Dilution^−1 540 [1]: 0.024

Ac-IAYLKQATAK-NH2 [PGCC, reference compound]
Antibody induction (ELISA), Dilution^−1 1620 [2]: −0.003
Antibody induction (ELISA), Dilution^−1 4860 [2]: 0.003

Ac-LRMK-AYRAIRHIPR-NH2 [gp160(843–855)]
IFN-γ/Th-1 responses to the HIV gp160(843–855) epitope (ELISPOT) [3]: IFN-γ/Th-1 responses were elicited

Ac-LRMK-ava-YRAIRHIPR-NH2 [Ii-Key/one-ava/gp160(844–855)]
IFN-γ/Th-1 responses to the HIV gp160(843–855) epitope (ELISPOT) [3]: IFN-γ/Th-1 responses were elicited

Ii-Key/two-ava/gp160 (843–855) (Ac-LRMK[ava][ava]AYRAIRHIPR-NH2; reading uncertain)
Antibody induction (ELISA), Dilution^−1 20 [1]: 0.131
Antibody induction (ELISA), Dilution^−1 60 [1]: 0.039
Antibody induction (ELISA), Dilution^−1 180 [1]: 0.027
Antibody induction (ELISA), Dilution^−1 540 [1]: 0.003

HLFYSWYK [9.5.6]
elicitation of CTL lines lysing tumor cells expressing HLA-A24 and CEA [4]: elicited CTL lines that lysed tumor cells

QYSWFVNGTF [9.5.4]
elicitation of CTL lines lysing tumor cells expressing HLA-A24 and CEA [4]: elicited CTL lines that lysed tumor cells
